In PubChem BioAssay AID264 (DTP/NCI, 2004):
“And” between values parts separate entries of the source, which are not always exact repeats. Equal values may be shown once. Records with an inconclusive call do not appear.

System: nude mice, LX-1 lung xenograft intrarenal, tumor weight T/C
Test: NCI In Vivo Anticancer Drug Screen. Data for tumor model Human Lung LX-1 Xenograft (intrarenal inoculation) in NU/NU Swiss (nude) mice
Conditions: endpoint: mean tumor weight change, higher = larger tumour
Procedure: The antitumor activity of compounds was measured in mice bearing transplantable tumors. Survival or tumor size were measured and the results are expressed as the measurement made in the treated group (T) divided by the measurement made in the vehicle treated control group (C). The tumor model used in this assay is Human Lung LX-1 Xenograft (intrarenal inoculation) in NU/NU Swiss (nude) mice

[1] = dose: 100.0 mg/kg/injection, schedule: Q04DX003 (sc), vehicle: Klucel (hydroxypropylcellulose) (HPC)
[2] = dose: 200.0 mg/kg/injection, schedule: Q04DX003 (sc), vehicle: Klucel (hydroxypropylcellulose) (HPC)
[3] = dose: 400.0 mg/kg/injection, schedule: Q04DX003 (sc), vehicle: Klucel (hydroxypropylcellulose) (HPC)
[4] = dose: 50.0 mg/kg/injection, schedule: Q04DX003 (sc), vehicle: saline with Tween-80
[5] = dose: 100.0 mg/kg/injection, schedule: Q04DX003 (sc), vehicle: saline with Tween-80

`COC1=C2C[C@@H](C)C[C@@H](OC)[C@@H](O)[C@H](C)/C=C(\C)[C@@H](OC(N)=O)[C@H](OC)/C=C\C=C(/C)C(=O)NC(=CC1=O)C2=O` was tested, and the T/C (dose: 1.0 mg/kg/injection, schedule: Q04DX003 (sc), vehicle: saline) was 77 % of control, the T/C (dose: 2.0 mg/kg/injection, schedule: Q04DX003 (sc), vehicle: saline) was 57 % of control and the T/C (dose: 4.0 mg/kg/injection, schedule: Q04DX003 (sc), vehicle: saline) was 104 % of control. The T/C (dose: 8.0 mg/kg/injection, schedule: Q04DX003 (sc), vehicle: saline) was 81 % of control.
For `Cc1cc(N(CCOS(C)(=O)=O)CCOS(C)(=O)=O)ccc1C=Nc1ccc(-c2nc(Cc3ccccc3)sc2C)cc1`, the T/C (dose: 50.0 mg/kg/injection, schedule: Q01DX010 (sc), vehicle: Klucel (hydroxypropylcellulose) (HPC)) was 12 % of control and 26 % of control, the T/C (dose: 100.0 mg/kg/injection, schedule: Q01DX010 (sc), vehicle: Klucel (hydroxypropylcellulose) (HPC)) was 5 % of control (2×) and 11 % of control and the T/C (dose: 200.0 mg/kg/injection, schedule: Q01DX010 (sc), vehicle: Klucel (hydroxypropylcellulose) (HPC)) was 1 % of control. The T/C (dose: 400.0 mg/kg/injection, schedule: Q01DX010 (sc), vehicle: Klucel (hydroxypropylcellulose) (HPC)) was 1 % of control.
For `O=Cc1ccc(C(Cl)(Cl)Cl)cc1`, the T/C (dose: 50.0 mg/kg/injection, schedule: Q01DX010 (sc), vehicle: saline with Tween-80) was 176 % of control, the T/C (dose: 200.0 mg/kg/injection, schedule: Q01DX010 (sc), vehicle: saline with Tween-80) was 179 % of control and the T/C (dose: 800.0 mg/kg/injection, schedule: Q01DX010 (sc), vehicle: saline with Tween-80) was 77 % of control.
`N=C1CCCS1` was tested, and the T/C (dose: 18.75 mg/kg/injection, schedule: Q04DX003 (sc), vehicle: saline) was 121 % of control, the T/C (dose: 37.5 mg/kg/injection, schedule: Q04DX003 (sc), vehicle: saline) was 87 % of control and the T/C (dose: 75.0 mg/kg/injection, schedule: Q04DX003 (sc), vehicle: saline) was 113 % of control.
With `COC1=NCN=C2SC=C(N)N=C12` the T/C (dose: 150.0 mg/kg/injection, schedule: Q04DX003 (sc), vehicle: suspension in saline) was 79 % of control.
For `C=C1C(=O)O[C@@H]2[C@H](O)[C@@H](C)[C@@H]3C=CC(=O)[C@@]3(C)[C@H](OC(=O)C=C(C)C)[C@H]12`, the T/C (dose: 9.38 mg/kg/injection, schedule: Q04DX003 (sc), vehicle: saline with Tween-80) was 95 % of control, the T/C (dose: 18.75 mg/kg/injection, schedule: Q04DX003 (sc), vehicle: saline with Tween-80) was 101 % of control and the T/C (dose: 37.5 mg/kg/injection, schedule: Q04DX003 (sc), vehicle: saline with Tween-80) was 100 % of control.
`O=Cc1ccccc1` was tested, and the T/C [1] was 64 % of control, the T/C [2] was 75 % of control and the T/C [3] was 73 % of control. For the same compound, the T/C (dose: 800.0 mg/kg/injection, schedule: Q04DX003 (sc), vehicle: Klucel (hydroxypropylcellulose) (HPC)) was 112 % of control.
In the case of `CSc1ccc2c(c1)C(N1CCN(C)CC1)Cc1ccccc1S2` (configuration not stated), the T/C (dose: 25.0 mg/kg/injection, schedule: Q04DX003 (sc), vehicle: saline with Tween-80) is reported as 152 % of control, the T/C [4] is reported as 88 % of control and the T/C [5] is reported as 171 % of control.
With `CCC(=O)O[C@H]1CC[C@H]2[C@@H]3CCC4=CC(=O)CC[C@]4(C)[C@H]3CC[C@]12C` the T/C (dose: 300.0 mg/kg/injection, schedule: Q04DX003 (sc), vehicle: Klucel (hydroxypropylcellulose) (HPC)) was 77 % of control, the T/C (dose: 600.0 mg/kg/injection, schedule: Q04DX003 (sc), vehicle: Klucel (hydroxypropylcellulose) (HPC)) was 59 % of control and the T/C (dose: 1200.0 mg/kg/injection, schedule: Q04DX003 (sc), vehicle: Klucel (hydroxypropylcellulose) (HPC)) was 65 % of control. The T/C (dose: 2400.0 mg/kg/injection, schedule: Q04DX003 (sc), vehicle: Klucel (hydroxypropylcellulose) (HPC)) was 69 % of control.
In the case of `Cc1noc(N)c1N`, the T/C (dose: 600.0 mg/kg/injection, schedule: Q04DX003 (sc), vehicle: water) is reported as 106 % of control and the T/C (dose: 1200.0 mg/kg/injection, schedule: Q04DX003 (sc), vehicle: water) is reported as 94 % of control.
`CCCC(=O)Nc1ncnc2c1ncn2C1OC2COP(=O)(O)OC2C1OC(=O)CCC` (configuration not stated) was tested, and the T/C (dose: 100.0 mg/kg/injection, schedule: Q01DX010 (sc), vehicle: saline) was 122 % of control, the T/C (dose: 200.0 mg/kg/injection, schedule: Q01DX010 (sc), vehicle: saline) was 92 % of control and the T/C (dose: 400.0 mg/kg/injection, schedule: Q01DX010 (sc), vehicle: saline) was 81 % of control.
For `CN(C)N=Nc1cccc(C(N)=O)c1`, the T/C (dose: 25.0 mg/kg/injection, schedule: Q04DX003 (sc), vehicle: Klucel (hydroxypropylcellulose) (HPC)) was 72 % of control, the T/C (dose: 50.0 mg/kg/injection, schedule: Q04DX003 (sc), vehicle: Klucel (hydroxypropylcellulose) (HPC)) was 47 % of control and the T/C [1] was 7 % of control and 15 % of control. For the same compound, the T/C [2] was 4 % of control and 29 % of control and the T/C [3] was -61 % of control.
For `NC(=S)N/N=C/c1ccc(OC(=O)COc2ccccc2)cn1`, the T/C (dose: 300.0 mg/kg/injection, schedule: Q04DX003 (sc), vehicle: saline with Tween-80) was 77 % of control, the T/C (dose: 600.0 mg/kg/injection, schedule: Q04DX003 (sc), vehicle: saline with Tween-80) was 73 % of control and the T/C (dose: 1200.0 mg/kg/injection, schedule: Q04DX003 (sc), vehicle: saline with Tween-80) was 37 % of control.
`COc1cccc2c1C(=O)c1c(O)c3c(c(O)c1C2=O)C[C@@](O)(C(=O)COC(=O)c1cccnc1)C[C@@H]3OC1CC(N)C(O)C(C)O1` (some centres not stated) was tested, and the T/C (dose: 3.0 mg/kg/injection, schedule: Q04DX003 (sc), vehicle: saline) was 120 % of control, the T/C (dose: 12.0 mg/kg/injection, schedule: Q04DX003 (sc), vehicle: saline) was 75 % of control and the T/C (dose: 24.0 mg/kg/injection, schedule: Q04DX003 (sc), vehicle: saline) was 83 % of control.
For `COC(=O)C[C@](O)(CCC(C)(C)O)C(=O)O[C@@H]1C(OC)=C[C@]23CCCN2CCc2cc4c(cc2[C@H]13)OCO4`, the T/C (dose: 0.63 mg/kg/injection, schedule: Q04DX003 (sc), vehicle: saline) was 115 % of control, the T/C (dose: 1.25 mg/kg/injection, schedule: Q04DX003 (sc), vehicle: saline) was 110 % of control and the T/C (dose: 2.5 mg/kg/injection, schedule: Q04DX003 (sc), vehicle: saline) was 95 % of control. The T/C (dose: 5.0 mg/kg/injection, schedule: Q04DX003 (sc), vehicle: saline) was 102 % of control.
With `CC(=O)N(C)c1ccc(Nc2cc(C)[nH]c3ccc4ncnc4c23)cc1` the T/C [4] was 101 % of control, the T/C [5] was 71 % of control and the T/C (dose: 200.0 mg/kg/injection, schedule: Q04DX003 (sc), vehicle: saline with Tween-80) was 56 % of control.
With `COc1cc([C@@H]2c3cc4c(c(O)c3C[C@H]3COC(=O)[C@@H]32)OCO4)cc(OC)c1OC` the T/C (dose: 0.25 mg/kg/injection, schedule: Q01DX010 (sc), vehicle: saline) was 91 % of control, the T/C (dose: 0.5 mg/kg/injection, schedule: Q01DX010 (sc), vehicle: saline) was 50 % of control and the T/C (dose: 1.0 mg/kg/injection, schedule: Q01DX010 (sc), vehicle: saline) was 58 % of control. For the same compound, the T/C (dose: 2.0 mg/kg/injection, schedule: Q01DX010 (sc), vehicle: saline) was 71 % of control and 73 % of control, the T/C (dose: 4.0 mg/kg/injection, schedule: Q01DX010 (sc), vehicle: saline) was 117 % of control and the T/C (dose: 8.0 mg/kg/injection, schedule: Q01DX010 (sc), vehicle: saline) was 168 % of control.
For `CO[C@H]1C[C@](C)(O)Cc2cc3c(c(O)c21)C(=O)c1c(O)cc2c(c1C3=O)O[C@@H]1O[C@@]2(C)[C@H](O)[C@@H](N(C)C)[C@@H]1O`, the T/C (dose: 3.12 mg/kg/injection, schedule: Q01DX010 (sc), vehicle: other) was 68 % of control, the T/C (dose: 6.25 mg/kg/injection, schedule: Q01DX010 (sc), vehicle: other) was 63 % of control and 70 % of control and the T/C (dose: 12.5 mg/kg/injection, schedule: Q01DX010 (sc), vehicle: other) was 23 % of control.
With `COc1cccc2c1C(=O)c1c(O)c3c(c(O)c1C2=O)CC(O)(C(=O)CO)CC3OC1CC(N)C(O)C(C)O1` (configuration not stated) the T/C (dose: 12.0 mg/kg/injection, schedule: Q01DX010 (sc), vehicle: saline) was 71 % of control, the T/C (dose: 24.0 mg/kg/injection, schedule: Q01DX010 (sc), vehicle: saline) was 24 % of control and the T/C (dose: 25.0 mg/kg/injection, schedule: Q01DX010 (sc), vehicle: water) was 71 % of control. The T/C (dose: 37.5 mg/kg/injection, schedule: Q04DX003 (sc), vehicle: water) was 82 % of control, the T/C (dose: 48.0 mg/kg/injection, schedule: Q01DX010 (sc), vehicle: saline) was 31 % of control and the T/C (dose: 50.0 mg/kg/injection, schedule: Q01DX010 (sc), vehicle: water) was 71 % of control. For the same compound, the T/C (dose: 75.0 mg/kg/injection, schedule: Q04DX003 (sc), vehicle: water) was 105 % of control, the T/C (dose: 100.0 mg/kg/injection, schedule: Q01DX010 (sc), vehicle: water) was 39 % of control and the T/C (dose: 150.0 mg/kg/injection, schedule: Q04DX003 (sc), vehicle: water) was 193 % of control. For the same compound, the T/C (dose: 200.0 mg/kg/injection, schedule: Q01DX010 (sc), vehicle: water) was 11 % of control and the T/C (dose: 300.0 mg/kg/injection, schedule: Q04DX003 (sc), vehicle: water) was 46 % of control.
